Experimental data published in the supplement of paper PMC9013687.
± gives the standard deviation of the averaged measurements.

Experiments:
Danio rerio embryo [1] = details: exposure time: 4 dpf
Procedure: (§1)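 Zebrafish embryos (UFZ-OBI strain) were exposed from 2 hpf for 48 h (2 dpf) or 96 h (4 dpf) at 28 °C; spontaneous tail coiling was scored at 25 hpf. Morphological features from automated image analysis (FishInspector), heart rate and locomotor response were fitted with drc models. Quantal endpoints were dichotomised at 2.5 SD from controls and fitted with a log-logistic model; heart rate, pigmentation and STC were normalised to the replicate control mean. Betamethasone was tested as betamethasone dipropionate, diflorasone as diflorasone diacetate.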

Danio rerio embryo [2] = assay: EC50 Eye-jaw distance_Decrease; details: exposure time: 4 dpf
Procedure: as §1

Danio rerio embryo [3] = assay: EC10 Eye-jaw distance_Decrease; higher = less potent; details: exposure time: 4 dpf
Procedure: as §1

Danio rerio embryo [4] = assay: EC50 Curvature_Increase
Procedure: as §1

Danio rerio embryo [5] = system: Danio rerio embryo
Procedure: as §1

Danio rerio embryo [6] = assay: EC20 Body length_Decrease; higher = less potent; details: exposure time: 4 dpf
Procedure: as §1

Danio rerio embryo [7] = assay: EC20 Pericard size_Increase; higher = less potent
Procedure: as §1

Danio rerio embryo [8] = assay: EC10 Lack of SB; higher = less potent; details: exposure time: 4 dpf
Procedure: as §1

Danio rerio embryo [9] = assay: EC10 Body length_Decrease; higher = less potent; details: exposure time: 4 dpf
Procedure: as §1

Danio rerio embryo [10] = assay: EC10 Heart rate; higher = less potent; details: exposure time: 4 dpf
Procedure: as §1

Danio rerio embryo [11] = assay: EC50 Yolk sac size_Increase
Procedure: as §1

Danio rerio embryo [12] = assay: EC20 Any effect; higher = less potent
Procedure: as §1

Danio rerio embryo [13] = assay: EC20 LMR dark; higher = less potent; details: exposure time: 4 dpf
Procedure: as §1

Danio rerio embryo [14] = assay: EC20 Eye size_Decrease; higher = less potent; details: exposure time: 4 dpf
Procedure: as §1

Danio rerio embryo [15] = assay: EC20 Otolith-eye distance_Decrease; higher = less potent; details: exposure time: 4 dpf
Procedure: as §1

Danio rerio embryo [16] = details: exposure time: 4 dpf; remark: listed apart in the source
Procedure: as §1

Danio rerio embryo [17] = assay: EC50 Bladder size_Decrease; details: exposure time: 4 dpf
Procedure: as §1

Danio rerio embryo [18] = assay: EC10 Curvature_Increase; higher = less potent
Procedure: as §1

Danio rerio embryo [19] = assay: EC20 Heart rate; higher = less potent; details: exposure time: 4 dpf
Procedure: as §1

Danio rerio embryo [20] = assay: EC10 Any effect; higher = less potent
Procedure: as §1

Danio rerio embryo [21] = assay: EC20 Yolk sac size_Increase; higher = less potent
Procedure: as §1

Danio rerio embryo [22] = assay: EC10 Pericard size_Increase; higher = less potent
Procedure: as §1

Danio rerio embryo [23] = assay: EC50 Body length_Decrease; details: exposure time: 4 dpf
Procedure: as §1

Danio rerio embryo [24] = assay: EC20 Curvature_Increase; higher = less potent
Procedure: as §1

Danio rerio embryo [25] = assay: EC10 Yolk sac size_Increase; higher = less potent
Procedure: as §1

Danio rerio embryo [26] = assay: EC50 Pericard size_Increase
Procedure: as §1

Danio rerio embryo [27] = assay: spontaneous tail coiling frequency (coils/min/embryo); higher = more spontaneous movement; details: 25 hpf
Procedure: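 Spontaneous tail coilings of zebrafish embryos exposed from 2 hpf were recorded at 24-25 hpf in 1-min videos and detected by a KNIME workflow from grey-value variance. Betamethasone was tested as the dipropionate, diflorasone as the diacetate.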

Danio rerio embryo [28] = assay: EC10 Eye size_Decrease; higher = less potent; details: exposure time: 4 dpf
Procedure: as §1

Danio rerio embryo [29] = assay: EC10 LMR dark; higher = less potent; details: exposure time: 4 dpf
Procedure: as §1

Danio rerio embryo [30] = assay: EC20 Eye-jaw distance_Decrease; higher = less potent; details: exposure time: 4 dpf
Procedure: as §1

Danio rerio embryo [31] = assay: EC50 Eye size_Decrease; details: exposure time: 4 dpf
Procedure: as §1

Danio rerio embryo [32] = assay: EC20 Bladder size_Decrease; higher = less potent; details: exposure time: 4 dpf
Procedure: as §1

Danio rerio embryo [33] = assay: EC10 Bladder size_Decrease; higher = less potent; details: exposure time: 4 dpf
Procedure: as §1

Danio rerio embryo [34] = details: exposure time: 4 dpf; remark: listed apart in the source
Procedure: as §1

Danio rerio embryo [35] = assay: EC20 Lack of SB; higher = less potent; details: exposure time: 4 dpf
Procedure: as §1

Danio rerio embryo [36] = assay: EC10 Otolith-eye distance_Decrease; higher = less potent; details: exposure time: 4 dpf
Procedure: as §1

Danio rerio embryo [37] = assay: EC50 Otolith-eye distance_Decrease; details: exposure time: 4 dpf
Procedure: as §1

CC1(C)O[C@@H]2[C@@H](CO[C@@]3(COS(N)(=O)=O)OC(C)(C)O[C@@H]23)O1 [Topiramate]
EC50 LMR dark (Danio rerio embryo [1]): 461 µM
EC50 Eye-jaw distance Decrease (Danio rerio embryo [2]): 236 µM
EC10 Eye-jaw distance Decrease (Danio rerio embryo [3]): 133 µM
EC50 Curvature Increase (Danio rerio embryo [4]; exposure time: 2 dpf): 1250 µM
EC50 Curvature Increase (Danio rerio embryo [4]; exposure time: 4 dpf): 927 µM
EC50 Any effect (Danio rerio embryo [5]; exposure time: 2 dpf): 321 µM
EC50 Any effect (Danio rerio embryo [5]; exposure time: 4 dpf): 94.9 µM
EC20 Body length Decrease (Danio rerio embryo [6]): 46.4 µM
EC20 Pericard size Increase (Danio rerio embryo [7]; exposure time: 2 dpf): 33 µM
EC20 Pericard size Increase (Danio rerio embryo [7]; exposure time: 4 dpf): 302 µM
EC10 Lack of SB (Danio rerio embryo [8]): 29.7 µM
EC10 Body length Decrease (Danio rerio embryo [9]): 24.1 µM
EC10 Heart rate (Danio rerio embryo [10]): 13.3 µM
EC50 Yolk sac size Increase (Danio rerio embryo [11]; exposure time: 2 dpf): 990 µM
EC50 Yolk sac size Increase (Danio rerio embryo [11]; exposure time: 4 dpf): 303 µM
EC20 Any effect (Danio rerio embryo [12]; exposure time: 2 dpf): 59.1 µM
EC20 Any effect (Danio rerio embryo [12]; exposure time: 4 dpf): 38.7 µM
EC20 LMR dark (Danio rerio embryo [13]): 331 µM
EC20 Eye size Decrease (Danio rerio embryo [14]): 97.9 µM
EC20 Otolith-eye distance Decrease (Danio rerio embryo [15]): 37.9 µM
EC50 Heart rate (Danio rerio embryo [16]): 87.8 µM
EC50 Bladder size Decrease (Danio rerio embryo [17]): 49.5 µM
EC10 Curvature Increase (Danio rerio embryo [18]; exposure time: 2 dpf): 986 µM
EC10 Curvature Increase (Danio rerio embryo [18]; exposure time: 4 dpf): 455 µM
EC20 Heart rate (Danio rerio embryo [19]): 28.3 µM
EC10 Any effect (Danio rerio embryo [20]; exposure time: 2 dpf): 22 µM
EC10 Any effect (Danio rerio embryo [20]; exposure time: 4 dpf): 22.9 µM
EC20 Yolk sac size Increase (Danio rerio embryo [21]; exposure time: 2 dpf): 722 µM
EC20 Yolk sac size Increase (Danio rerio embryo [21]; exposure time: 4 dpf): 149 µM
EC10 Pericard size Increase (Danio rerio embryo [22]; exposure time: 2 dpf): 11.2 µM
EC10 Pericard size Increase (Danio rerio embryo [22]; exposure time: 4 dpf): 210 µM
EC50 Body length Decrease (Danio rerio embryo [23]): 142 µM
EC20 Curvature Increase (Danio rerio embryo [24]; exposure time: 2 dpf): 1080 µM
EC20 Curvature Increase (Danio rerio embryo [24]; exposure time: 4 dpf): 591 µM
EC10 Yolk sac size Increase (Danio rerio embryo [25]; exposure time: 2 dpf): 601 µM
EC10 Yolk sac size Increase (Danio rerio embryo [25]; exposure time: 4 dpf): 98.8 µM
EC50 Pericard size Increase (Danio rerio embryo [26]; exposure time: 2 dpf): 208 µM
EC50 Pericard size Increase (Danio rerio embryo [26]; exposure time: 4 dpf): 563 µM
spontaneous tail coiling frequency (Danio rerio embryo [27]; 49.6 µM): 0.85
spontaneous tail coiling frequency (Danio rerio embryo [27]; 81.8 µM): 1.99 ± 1.7
spontaneous tail coiling frequency (Danio rerio embryo [27]; 135 µM): 2.03 ± 1.4
spontaneous tail coiling frequency (Danio rerio embryo [27]; 222.7 µM): 0.24
spontaneous tail coiling frequency (Danio rerio embryo [27]; 367.5 µM): 1.31 ± 0.99
spontaneous tail coiling frequency (Danio rerio embryo [27]; 606.3 µM): 2.44 ± 2
spontaneous tail coiling frequency (Danio rerio embryo [27]; 1000 µM): 1.46
spontaneous tail coiling frequency (Danio rerio embryo [27]; 1000.4 µM): 2.49
spontaneous tail coiling frequency (Danio rerio embryo [27]; 1473.4 µM): 2.59
EC10 Eye size Decrease (Danio rerio embryo [28]): 57.7 µM
EC10 LMR dark (Danio rerio embryo [29]): 273 µM
EC20 Eye-jaw distance Decrease (Danio rerio embryo [30]): 165 µM
EC50 Eye size Decrease (Danio rerio embryo [31]): 242 µM
EC20 Bladder size Decrease (Danio rerio embryo [32]): 34.7 µM
EC10 Bladder size Decrease (Danio rerio embryo [33]): 28.2 µM
EC50 Lack of SB (Danio rerio embryo [34]): 69.7 µM
EC20 Lack of SB (Danio rerio embryo [35]): 40.7 µM
EC10 Otolith-eye distance Decrease (Danio rerio embryo [36]): 24.4 µM
EC50 Otolith-eye distance Decrease (Danio rerio embryo [37]): 80.9 µM
